In patent US11524968B2, “Heterocyclic compound as a protein kinase inhibitor” (HK inno.N Corporation, priority 2017, dated 2022):

Target: JAK1 (Homo sapiens (Human), UniProt P23458)
Assay: Analysis of JAK1 activity inhibition ability (ADP-Glo Kinase Assay)
Type: biochemical
Conditions: JAK1 enzyme, ADP-Glo luminescence, ATP 250 uM, IRS-itide substrate, 30° C. 40 minutes; read-out: IC50
How it was run: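 ADP-Glo luminescence read-out of ADP production, with IC50 taken as the concentration halving JAK1 activity relative to control. Enzyme was incubated 40 min at 30 °C with compound, IRS-itide (40 ng/mL) and ATP (250 uM), concentrations as prepared in pH 7.5 Tris-HCl/MgCl2/BSA/DTT buffer.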

Sequence of JAK1 (P23458 whole entry): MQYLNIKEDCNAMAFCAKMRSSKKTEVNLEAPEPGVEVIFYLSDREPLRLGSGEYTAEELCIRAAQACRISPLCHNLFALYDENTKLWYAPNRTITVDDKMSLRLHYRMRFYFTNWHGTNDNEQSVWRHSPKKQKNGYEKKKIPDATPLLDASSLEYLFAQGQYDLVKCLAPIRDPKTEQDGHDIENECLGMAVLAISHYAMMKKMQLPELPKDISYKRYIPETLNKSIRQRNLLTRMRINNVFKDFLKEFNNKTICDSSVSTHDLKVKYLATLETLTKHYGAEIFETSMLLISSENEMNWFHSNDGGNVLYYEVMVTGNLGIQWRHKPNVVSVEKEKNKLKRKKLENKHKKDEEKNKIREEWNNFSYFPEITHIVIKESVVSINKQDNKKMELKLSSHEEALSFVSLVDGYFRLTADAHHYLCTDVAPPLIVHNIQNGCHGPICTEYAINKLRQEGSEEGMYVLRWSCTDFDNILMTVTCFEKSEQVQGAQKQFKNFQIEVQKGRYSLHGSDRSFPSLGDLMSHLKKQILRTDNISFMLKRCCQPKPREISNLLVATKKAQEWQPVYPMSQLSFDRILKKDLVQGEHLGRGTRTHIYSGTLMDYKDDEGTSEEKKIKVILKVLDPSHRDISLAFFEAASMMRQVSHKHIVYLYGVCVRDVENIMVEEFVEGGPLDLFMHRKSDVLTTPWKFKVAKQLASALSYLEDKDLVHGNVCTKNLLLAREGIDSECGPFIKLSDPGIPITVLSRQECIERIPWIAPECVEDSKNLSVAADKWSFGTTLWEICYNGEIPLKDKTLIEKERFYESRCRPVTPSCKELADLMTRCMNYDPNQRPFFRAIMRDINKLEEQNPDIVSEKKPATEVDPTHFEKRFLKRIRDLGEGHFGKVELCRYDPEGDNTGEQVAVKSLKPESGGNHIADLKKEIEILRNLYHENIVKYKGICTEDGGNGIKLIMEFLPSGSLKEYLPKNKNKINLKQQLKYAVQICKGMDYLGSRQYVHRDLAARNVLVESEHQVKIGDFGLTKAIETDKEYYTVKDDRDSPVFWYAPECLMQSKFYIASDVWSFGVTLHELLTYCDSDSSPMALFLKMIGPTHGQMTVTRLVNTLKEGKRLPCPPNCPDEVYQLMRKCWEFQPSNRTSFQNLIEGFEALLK

Row | Structure (SMILES) | IC50 [nM]
1 | N#CC1(C(=O)N2CC=C(c3cc(NC(=O)C4CC4)nc4[nH]ccc34)CC2)CC1 [Example 259, N-(4-(1-(1-cyanocyclopropane-1-carbonyl)-1,2,3,6-tetrahydropyridin-4-yl)-1H-pyrrolo[2,3-b]pyridin-6-yl)cyclopropanecarboxamide] | > 200
2 | O=C(Nc1cc(C2=CCN(C(=O)C3CC(F)(F)C3)CC2)c2cc[nH]c2n1)C1CC1 [Example 260, N-(4-(1-(3,3-difluorocyclobutane-1-carbonyl)-1,2,3,6-tetrahydropyridin-4-yl)-1H-pyrrolo[2,3-b]pyridin-6-yl)cyclopropanecarboxamide] | 20 to 200
3 | O=C(Nc1cc(C2=CC3CCC(C2)N3C(=O)CC(F)(F)F)c2cc[nH]c2n1)C1CC1 (stereo not drawn) [Example 261, N-(4-(8-(3,3,3-trifluoropropanoyl)-8-azabicyclo[3.2.1]oct-2-en-3-yl)-1H-pyrrolo[2,3-b]pyridin-6-yl)cyclopropanecarboxamide] | 20 to 200
4 | N#CCC(=O)N1[C@@H]2CC[C@H]1C=C(c1cc(NC(=O)C3CC3)nc3[nH]ccc13)C2 [Example 262, N-(4-((1S,5R)-8-(2-cyanoacetyl)-8-azabicyclo[3.2.1]oct-2-en-3-yl)-1H-pyrrolo[2,3-b]pyridin-6-yl)cyclopropanecarboxamide] | 20 to 200
5 | O=C(Nc1cc(C2=CCN(C(=O)C3CC3(F)F)CC2)c2cc[nH]c2n1)C1CC1 (stereo not drawn) [Example 263, N-(4-(1-(2,2-difluorocyclopropane-1-carbonyl)-1,2,3,6-tetrahydropyridin-4-yl)-1H-pyrrolo[2,3-b]pyridin-6-yl)cyclopropanecarboxamide] | < 20
6 | O=C(Nc1cc(C2=CCN(C(=O)C3CC3)CC2)c2cc[nH]c2n1)C1CC1 [Example 264, N-(4-(1-(cyclopropanecarbonyl)-1,2,3,6-tetrahydropyridin-4-yl)-1H-pyrrolo[2,3-b]pyridin-6-yl)cyclopropanecarboxamide] | 20 to 200
7 | N#CCCCC(=O)N1CC=C(c2cc(NC(=O)C3CC3)nc3[nH]ccc23)CC1 [Example 265, N-(4-(1-(4-cyanobutanoyl)-1,2,3,6-tetrahydropyridin-4-yl)-1H-pyrrolo[2,3-b]pyridin-6-yl)cyclopropanecarboxamide] | < 20
8 | C=CC(=O)N1CC=C(c2cc(NC(=O)C3CC3)nc3[nH]ccc23)CC1 [Example 266, N-(4-(1-acryloyl-1,2,3,6-tetrahydropyridin-4-yl)-1H-pyrrolo[2,3-b]pyridin-6-yl)cyclopropanecarboxamide] | 20 to 200
9 | N#CC1(CC(=O)N2CC=C(c3cc(NC(=O)C4CC4)nc4[nH]ccc34)CC2)CC1 [Example 268, N-(4-(1-(2-(1-cyanocyclopropyl)acetyl)-1,2,3,6-tetrahydropyridin-4-yl)-1H-pyrrolo[2,3-b]pyridin-6-yl)cyclopropanecarboxamide] | 20 to 200
10 | CC(C#N)C(=O)N1CC=C(c2cc(NC(=O)C3CC3)nc3[nH]ccc23)CC1 (stereo not drawn) [Example 269, N-(4-(1-(2-cyanopropanoyl)-1,2,3,6-tetrahydropyridin-4-yl)-1H-pyrrolo[2,3-b]pyridin-6-yl)cyclopropanecarboxamide] | < 20
11 | C=CCC(=O)N1CC=C(c2cc(NC(=O)C3CC3)nc3[nH]ccc23)CC1 [Example 270, N-(4-(1-(but-3-enoyl)-1,2,3,6-tetrahydropyridin-4-yl)-1H-pyrrolo[2,3-b]pyridin-6-yl)cyclopropanecarboxamide] | > 200
12 | CCC(C#N)C(=O)N1CC=C(c2cc(NC(=O)C3CC3)nc3[nH]ccc23)CC1 (stereo not drawn) [Example 271, N-(4-(1-(2-cyanobutanoyl)-1,2,3,6-tetrahydropyridin-4-yl)-1H-pyrrolo[2,3-b]pyridin-6-yl)cyclopropanecarboxamide] | 20 to 200

Other lines, results leading:

Row | IC50 [nM] | Structure (SMILES)
13 | 20 to 200 | O=C(Nc1cc(C2=CCN(C(=O)C(F)(F)F)CC2)c2cc[nH]c2n1)C1CC1 [Example 272, N-(4-(1-(2,2,2-trifluoroacetyl)-1,2,3,6-tetrahydropyridin-4-yl)-1H-pyrrolo[2,3-b]pyridin-6-yl)cyclopropanecarboxamide]
14 | 20 to 200 | CC1CC1C(=O)N1CC=C(c2cc(NC(=O)C3CC3)nc3[nH]ccc23)CC1 (stereo not drawn) [Example 273, N-(4-(1-(2-methylcyclopropane-1-carbonyl)-1,2,3,6-tetrahydropyridin-4-yl)-1H-pyrrolo[2,3-b]pyridin-6-yl)cyclopropanecarboxamide]
15 | < 20 | O=C(Nc1cc(C2=CCN(C(=O)C3CC3F)CC2)c2cc[nH]c2n1)C1CC1 (stereo not drawn) [Example 274, N-(4-(1-(2-fluorocyclopropane-1-carbonyl)-1,2,3,6-tetrahydropyridin-4-yl)-1H-pyrrolo[2,3-b]pyridin-6-yl)cyclopropanecarboxamide]
16 | < 20 | N#CCC(=O)N1CC=C(c2cc(NC(=O)C3CC3)[n+]([O-])c3[nH]ccc23)CC1 [Example 275, 4-(1-(2-cyanoacetyl)-1,2,3,6-tetrahydropyridin-4-yl)-6-(cyclopropanecarboxamido)-1H-pyrrolo[2,3-b]pyridine 7-oxide]
17 | 20 to 200 | O=C(Nc1cc(C2=CCN(C(=O)Cc3ccc(F)c(F)c3)CC2)c2cc[nH]c2n1)C1CC1 [Example 276, N-(4-(1-(2-(3,4-difluorophenyl)acetyl)-1,2,3,6-tetrahydropyridin-4-yl)-1H-pyrrolo[2,3-b]pyridin-6-yl)cyclopropanecarboxamide]
18 | > 200 | O=C(Nc1cc(C2=CCN(C(=O)c3ccncc3)CC2)c2cc[nH]c2n1)C1CC1 [Example 277, N-(4-(1-isonicotinoyl-1,2,3,6-tetrahydropyridin-4-yl)-1H-pyrrolo[2,3-b]pyridin-6-yl)cyclopropanecarboxamide]
19 | 20 to 200 | O=C(Nc1cc(C2=CCN(C(=O)c3ccoc3)CC2)c2cc[nH]c2n1)C1CC1 [Example 278, N-(4-(1-(furan-3-carbonyl)-1,2,3,6-tetrahydropyridin-4-yl)-1H-pyrrolo[2,3-b]pyridin-6-yl)cyclopropanecarboxamide]
20 | 20 to 200 | O=C(Nc1cc(C2=CCN(C(=O)c3ccc(F)cc3)CC2)c2cc[nH]c2n1)C1CC1 [Example 279, N-(4-(1-(4-fluorobenzoyl)-1,2,3,6-tetrahydropyridin-4-yl)-1H-pyrrolo[2,3-b]pyridin-6-yl)cyclopropanecarboxamide]
21 | > 200 | CN1CCC(C(=O)N2CC=C(c3cc(NC(=O)C4CC4)nc4[nH]ccc34)CC2)C1 (stereo not drawn) [Example 280, N-(4-(1-(1-methylpyrrolidine-3-carbonyl)-1,2,3,6-tetrahydropyridin-4-yl)-1H-pyrrolo[2,3-b]pyridin-6-yl)cyclopropanecarboxamide]
22 | > 200 | CN(C)CC(=O)N1CC=C(c2cc(NC(=O)C3CC3)nc3[nH]ccc23)CC1 [Example 281, N-(4-(1-(dimethylglycyl)-1,2,3,6-tetrahydropyridin-4-yl)-1H-pyrrolo[2,3-b]pyridin-6-yl)cyclopropanecarboxamide]
23 | 20 to 200 | O=C(Nc1cc(C2=CCN(C(=O)C3CC3C(F)(F)F)CC2)c2cc[nH]c2n1)C1CC1 (stereo not drawn) [Example 282, N-(4-(1-(2-(trifluoromethyl)cyclopropane-1-carbonyl)-1,2,3,6-tetrahydropyridin-4-yl)-1H-pyrrolo[2,3-b]pyridin-6-yl)cyclopropanecarboxamide]
24 | < 20 | CC1CN(C(=O)CC#N)CC=C1c1cc(NC(=O)C2CC2)nc2[nH]ccc12 (stereo not drawn) [Example 283, N-(4-(1-(2-cyanoacetyl)-3-methyl-1,2,3,6-tetrahydropyridin-4-yl)-1H-pyrrolo[2,3-b]pyridin-6-yl)cyclopropanecarboxamide]
